Activity calls are given as the source filed them. No cut-off for these calls is given here.
How the values were obtained:
[1] = species on record: Bos taurus; test: Inhibition of calf thymus DNA topoisomerase 1 assessed as pUC19 DNA relaxation at 10 uM by gel electrophoresis
[2] = (§1) Inhibition of calf thymus DNA topoisomerase 1 assessed as pUC19 DNA relaxation by gel electrophoresis; design: species or system Bos taurus
[3] = species on record: Bos taurus; test: as §1
[4] = species on record: Bos taurus; test: Inhibition of calf thymus DNA topoisomerase 1 assessed as pUC19 DNA relaxation at 20 uM by gel electrophoresis
[5] = species on record: Bos taurus; test: Inhibition of calf thymus DNA topoisomerase 1 assessed as pUC19 DNA relaxation at 40 uM by gel electrophoresis

SMILES | Activity [1] | IC50 [2] | inhibition [3] | inhibition [1] | inhibition [4] | inhibition [5]
COc1c2ccoc2cc2oc(=O)ccc12 [BERGAPTEN] | Active | 6.5 µM | Dose-dependent effect | – | – | –
O=c1ccc2cc3ccoc3cc2o1 [PSORALEN] | – | 11 µM | Dose-dependent effect | inactive | 100% | –
COc1c2occc2cc2ccc(=O)oc12 [METHOXSALEN] | – | 28 µM | Dose-dependent effect | – | – | Active
